In US5830905A, “Compounds, compositions and methods for treatment of hepatitis C” (Viropharma Incorporated, priority 1996, dated 1998):

Biological target: viral helicase (Hepatitis C virus (isolate H77), UniProt P27958)
Test: Assay for Helicase Inhibition
Format: biochemical, HCV
Conditions: average of three test results; read-out: IC50 (concentration required to achieve a 50% inhibition of helicase activity)
Description: Anti-viral activity was measured on the basis of inhibition of helicase activity. The biological studies of the anti-viral activity of the compounds of the invention are described below.
Example 6 illustrates the efficacy of compounds of the invention in inhibiting the viral helicase activity.
Assay for Helicase Inhibition
The helicase inhibition assay was performed according to methodology of the type described, for example, in: Lain et al., Nucleic Acids Res. 18:7003-7006 (1991); Warrener et al., J. Virol. 69:1720-1726 (1995); Kim et al., Biochem. Biophys. Res. Comm. 214:160-166 (1995). The value given in Table 1 represent the average of three test results in which the concentrations of anti-viral compound required to achieve a 50% inhibition of helicase activity (IC50) were measured.

viral helicase, sequence (P27958 1027-1657): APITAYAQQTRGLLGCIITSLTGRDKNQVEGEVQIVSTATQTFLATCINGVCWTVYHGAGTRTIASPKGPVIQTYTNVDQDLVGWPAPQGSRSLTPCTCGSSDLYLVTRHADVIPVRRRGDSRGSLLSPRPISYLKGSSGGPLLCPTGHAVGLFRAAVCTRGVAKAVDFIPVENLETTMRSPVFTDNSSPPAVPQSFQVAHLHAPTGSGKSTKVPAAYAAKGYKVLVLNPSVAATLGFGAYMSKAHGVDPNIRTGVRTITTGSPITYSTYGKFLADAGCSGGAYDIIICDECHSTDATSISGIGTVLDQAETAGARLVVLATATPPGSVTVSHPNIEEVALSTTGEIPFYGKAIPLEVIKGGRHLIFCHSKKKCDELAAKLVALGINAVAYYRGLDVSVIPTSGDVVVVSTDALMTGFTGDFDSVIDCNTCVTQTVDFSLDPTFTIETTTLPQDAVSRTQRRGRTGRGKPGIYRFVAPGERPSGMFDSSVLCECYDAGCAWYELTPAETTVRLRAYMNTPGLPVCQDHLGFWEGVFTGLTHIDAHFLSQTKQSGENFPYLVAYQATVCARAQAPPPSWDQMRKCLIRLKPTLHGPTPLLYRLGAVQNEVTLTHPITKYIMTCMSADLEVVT

c1cc(CN2CCC(C3=N[C@@H]4CCCC[C@H]4N3)CC2)ccc1CN1CCC(C2=N[C@@H]3CCCC[C@H]3N2)CC1 (relative stereo) [Example 3, 1,1'-[1,4-phenylenebis (methylene)]bis(4,4'-trans-(4,5,6,7,8,9-hexahydro)benzimidazoyl)piperidine]
IC50: 7 µM
